Reference: publication doi:10.1101/2023.03.24.534094v2 (biorxiv, 2023)
Where two headings read alike, the source gives them in different places. One block for each compound: values may come before it.

Assays:
Test in all cases: biochemical
EphA7 = EphA7 (Homo sapiens, UniProt Q15375)
FES = FES (Homo sapiens, UniProt P07332)
TAF1 = TAF1 (Homo sapiens, UniProt P21675)
EphB3 = biological target: T1, EphB3 (Homo sapiens, UniProt P54753)
T1 sequence (P54753 1-998): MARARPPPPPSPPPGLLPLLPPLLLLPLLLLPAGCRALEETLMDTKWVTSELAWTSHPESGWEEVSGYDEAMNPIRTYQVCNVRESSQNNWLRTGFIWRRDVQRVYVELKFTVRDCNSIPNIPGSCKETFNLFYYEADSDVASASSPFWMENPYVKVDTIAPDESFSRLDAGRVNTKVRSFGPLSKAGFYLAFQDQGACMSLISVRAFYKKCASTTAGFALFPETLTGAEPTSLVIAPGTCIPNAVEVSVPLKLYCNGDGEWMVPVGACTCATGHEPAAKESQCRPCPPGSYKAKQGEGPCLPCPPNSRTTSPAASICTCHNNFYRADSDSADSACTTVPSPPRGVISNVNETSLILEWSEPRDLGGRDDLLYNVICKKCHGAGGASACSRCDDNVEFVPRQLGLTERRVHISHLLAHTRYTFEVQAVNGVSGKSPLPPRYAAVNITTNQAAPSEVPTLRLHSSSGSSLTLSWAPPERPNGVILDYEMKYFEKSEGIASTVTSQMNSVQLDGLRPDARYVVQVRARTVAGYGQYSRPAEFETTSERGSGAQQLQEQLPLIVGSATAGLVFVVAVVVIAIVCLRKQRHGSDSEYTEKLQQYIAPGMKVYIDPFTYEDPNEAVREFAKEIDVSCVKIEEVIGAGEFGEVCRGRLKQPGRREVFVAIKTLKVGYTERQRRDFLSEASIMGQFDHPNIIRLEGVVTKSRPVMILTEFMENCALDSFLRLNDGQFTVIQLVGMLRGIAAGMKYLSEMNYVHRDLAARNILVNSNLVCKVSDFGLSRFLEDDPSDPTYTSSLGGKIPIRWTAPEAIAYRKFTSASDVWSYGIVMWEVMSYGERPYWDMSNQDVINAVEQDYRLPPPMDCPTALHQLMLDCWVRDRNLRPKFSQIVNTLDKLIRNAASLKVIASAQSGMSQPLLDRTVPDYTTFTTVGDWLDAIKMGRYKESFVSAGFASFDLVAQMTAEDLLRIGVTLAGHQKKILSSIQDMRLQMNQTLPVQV

CHK2 = CHK2 (Homo sapiens, UniProt O96017)
CK2a1 = CK2a1 (Homo sapiens, UniProt P68400)
MAP3K5 = biological target: T2, MAP3K5 (Homo sapiens, UniProt Q99683)
T2 sequence (Q99683 1-1374): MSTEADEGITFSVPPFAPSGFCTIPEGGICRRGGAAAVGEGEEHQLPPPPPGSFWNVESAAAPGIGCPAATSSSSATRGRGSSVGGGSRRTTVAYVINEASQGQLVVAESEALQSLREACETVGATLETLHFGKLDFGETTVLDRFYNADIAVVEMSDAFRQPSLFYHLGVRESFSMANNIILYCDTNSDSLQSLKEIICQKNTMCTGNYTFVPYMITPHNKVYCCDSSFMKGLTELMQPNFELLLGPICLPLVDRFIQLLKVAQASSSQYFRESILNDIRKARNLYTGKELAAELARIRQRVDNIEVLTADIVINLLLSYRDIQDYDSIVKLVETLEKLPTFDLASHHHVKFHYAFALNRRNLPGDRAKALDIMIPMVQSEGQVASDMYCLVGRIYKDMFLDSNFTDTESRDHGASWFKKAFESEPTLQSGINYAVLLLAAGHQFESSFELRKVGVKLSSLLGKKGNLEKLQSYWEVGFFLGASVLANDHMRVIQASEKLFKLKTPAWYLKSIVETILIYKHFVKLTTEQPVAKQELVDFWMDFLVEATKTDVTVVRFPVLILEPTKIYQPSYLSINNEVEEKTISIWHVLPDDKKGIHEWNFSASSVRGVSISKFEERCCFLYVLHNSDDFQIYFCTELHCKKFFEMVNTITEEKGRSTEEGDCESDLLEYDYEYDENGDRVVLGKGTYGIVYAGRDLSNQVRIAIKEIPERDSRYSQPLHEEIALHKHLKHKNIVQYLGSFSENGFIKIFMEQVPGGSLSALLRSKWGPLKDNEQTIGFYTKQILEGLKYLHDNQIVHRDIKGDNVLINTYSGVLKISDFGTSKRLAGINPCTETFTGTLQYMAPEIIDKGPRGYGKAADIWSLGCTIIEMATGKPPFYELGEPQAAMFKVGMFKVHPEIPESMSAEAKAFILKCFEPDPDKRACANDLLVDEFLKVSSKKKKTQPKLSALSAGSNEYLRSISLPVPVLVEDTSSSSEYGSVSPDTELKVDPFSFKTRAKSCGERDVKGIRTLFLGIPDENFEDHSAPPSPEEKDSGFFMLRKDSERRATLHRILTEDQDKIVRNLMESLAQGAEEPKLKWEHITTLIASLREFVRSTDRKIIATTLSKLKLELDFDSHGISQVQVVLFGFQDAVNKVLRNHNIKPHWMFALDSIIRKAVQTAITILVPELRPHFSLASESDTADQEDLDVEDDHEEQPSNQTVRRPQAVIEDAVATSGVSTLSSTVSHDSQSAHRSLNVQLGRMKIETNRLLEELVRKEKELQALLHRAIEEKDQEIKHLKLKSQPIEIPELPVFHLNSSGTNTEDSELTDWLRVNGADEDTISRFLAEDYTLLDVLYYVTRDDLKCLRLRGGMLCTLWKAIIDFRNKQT

NDR2 = NDR2 (Homo sapiens, UniProt Q9Y2H1)

Chain of EphA7 (Q15375 whole entry): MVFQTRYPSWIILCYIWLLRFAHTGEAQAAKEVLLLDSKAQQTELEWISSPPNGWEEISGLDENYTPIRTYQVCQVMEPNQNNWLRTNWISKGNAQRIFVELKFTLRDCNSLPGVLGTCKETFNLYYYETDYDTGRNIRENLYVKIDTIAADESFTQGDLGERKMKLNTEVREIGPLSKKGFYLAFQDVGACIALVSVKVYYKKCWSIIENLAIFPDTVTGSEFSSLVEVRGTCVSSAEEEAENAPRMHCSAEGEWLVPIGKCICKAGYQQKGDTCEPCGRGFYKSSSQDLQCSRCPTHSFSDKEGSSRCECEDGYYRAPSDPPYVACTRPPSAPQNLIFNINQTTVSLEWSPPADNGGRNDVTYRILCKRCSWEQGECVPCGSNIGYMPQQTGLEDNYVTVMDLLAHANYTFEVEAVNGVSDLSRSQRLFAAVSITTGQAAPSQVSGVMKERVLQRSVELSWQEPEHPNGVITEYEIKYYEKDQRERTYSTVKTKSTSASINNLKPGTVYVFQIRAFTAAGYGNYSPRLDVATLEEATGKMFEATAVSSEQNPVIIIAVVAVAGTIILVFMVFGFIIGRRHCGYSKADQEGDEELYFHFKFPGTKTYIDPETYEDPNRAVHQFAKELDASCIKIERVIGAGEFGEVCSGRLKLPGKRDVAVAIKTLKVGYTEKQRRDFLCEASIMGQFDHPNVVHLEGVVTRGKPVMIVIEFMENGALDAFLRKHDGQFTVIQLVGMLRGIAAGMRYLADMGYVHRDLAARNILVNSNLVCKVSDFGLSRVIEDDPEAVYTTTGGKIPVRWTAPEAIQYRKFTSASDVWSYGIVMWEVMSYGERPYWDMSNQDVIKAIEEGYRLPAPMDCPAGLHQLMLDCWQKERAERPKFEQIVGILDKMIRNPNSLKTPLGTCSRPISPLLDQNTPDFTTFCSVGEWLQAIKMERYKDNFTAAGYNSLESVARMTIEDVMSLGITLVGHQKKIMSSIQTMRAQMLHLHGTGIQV
Chain of TAF1 (P21675 whole entry): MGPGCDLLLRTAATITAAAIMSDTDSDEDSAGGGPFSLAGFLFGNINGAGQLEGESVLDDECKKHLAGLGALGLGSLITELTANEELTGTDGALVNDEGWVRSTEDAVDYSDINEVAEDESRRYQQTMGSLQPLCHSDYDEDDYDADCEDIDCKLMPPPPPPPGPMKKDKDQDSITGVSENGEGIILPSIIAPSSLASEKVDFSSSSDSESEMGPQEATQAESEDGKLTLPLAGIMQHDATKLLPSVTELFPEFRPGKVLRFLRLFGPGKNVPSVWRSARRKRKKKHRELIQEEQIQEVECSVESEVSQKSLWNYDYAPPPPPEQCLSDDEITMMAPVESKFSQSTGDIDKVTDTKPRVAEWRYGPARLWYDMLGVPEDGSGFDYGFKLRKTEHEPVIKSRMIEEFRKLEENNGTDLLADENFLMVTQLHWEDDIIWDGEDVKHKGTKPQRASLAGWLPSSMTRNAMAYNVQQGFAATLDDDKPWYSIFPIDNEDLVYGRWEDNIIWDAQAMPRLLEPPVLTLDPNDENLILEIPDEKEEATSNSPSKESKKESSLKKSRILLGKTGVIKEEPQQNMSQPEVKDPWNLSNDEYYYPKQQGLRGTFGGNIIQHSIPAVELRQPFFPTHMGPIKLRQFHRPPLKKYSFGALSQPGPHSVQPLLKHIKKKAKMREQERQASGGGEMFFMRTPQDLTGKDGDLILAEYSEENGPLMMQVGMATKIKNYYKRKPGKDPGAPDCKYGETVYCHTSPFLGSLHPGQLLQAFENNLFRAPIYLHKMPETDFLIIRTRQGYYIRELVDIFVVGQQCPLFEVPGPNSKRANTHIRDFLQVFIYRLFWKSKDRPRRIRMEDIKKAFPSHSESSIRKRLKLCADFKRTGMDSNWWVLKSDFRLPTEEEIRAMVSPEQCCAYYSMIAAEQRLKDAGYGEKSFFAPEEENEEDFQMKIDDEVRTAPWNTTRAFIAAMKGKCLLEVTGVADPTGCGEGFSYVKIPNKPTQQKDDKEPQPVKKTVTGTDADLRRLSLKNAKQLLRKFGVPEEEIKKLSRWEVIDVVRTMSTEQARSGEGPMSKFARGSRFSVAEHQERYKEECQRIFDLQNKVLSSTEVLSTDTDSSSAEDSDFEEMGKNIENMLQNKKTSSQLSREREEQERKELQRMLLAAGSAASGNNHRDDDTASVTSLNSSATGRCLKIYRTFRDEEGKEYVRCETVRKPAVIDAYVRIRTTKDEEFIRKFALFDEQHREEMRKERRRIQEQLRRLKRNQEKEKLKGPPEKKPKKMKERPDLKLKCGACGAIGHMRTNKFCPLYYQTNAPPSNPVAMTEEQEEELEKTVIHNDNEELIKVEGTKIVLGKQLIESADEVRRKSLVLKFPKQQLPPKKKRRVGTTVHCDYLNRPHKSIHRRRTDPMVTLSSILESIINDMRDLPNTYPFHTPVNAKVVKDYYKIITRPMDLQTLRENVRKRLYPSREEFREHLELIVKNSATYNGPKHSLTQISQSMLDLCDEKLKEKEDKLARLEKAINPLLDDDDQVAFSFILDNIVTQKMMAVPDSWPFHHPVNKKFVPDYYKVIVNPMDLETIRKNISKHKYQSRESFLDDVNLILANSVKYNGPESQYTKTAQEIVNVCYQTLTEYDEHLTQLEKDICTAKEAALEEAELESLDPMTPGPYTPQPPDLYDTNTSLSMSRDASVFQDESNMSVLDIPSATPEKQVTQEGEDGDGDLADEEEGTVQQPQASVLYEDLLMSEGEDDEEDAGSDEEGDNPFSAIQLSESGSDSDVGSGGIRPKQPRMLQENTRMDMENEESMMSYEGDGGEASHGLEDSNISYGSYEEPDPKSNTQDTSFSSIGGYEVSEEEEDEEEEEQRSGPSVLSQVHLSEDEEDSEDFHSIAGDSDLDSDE
Chain of CHK2 (O96017 whole entry): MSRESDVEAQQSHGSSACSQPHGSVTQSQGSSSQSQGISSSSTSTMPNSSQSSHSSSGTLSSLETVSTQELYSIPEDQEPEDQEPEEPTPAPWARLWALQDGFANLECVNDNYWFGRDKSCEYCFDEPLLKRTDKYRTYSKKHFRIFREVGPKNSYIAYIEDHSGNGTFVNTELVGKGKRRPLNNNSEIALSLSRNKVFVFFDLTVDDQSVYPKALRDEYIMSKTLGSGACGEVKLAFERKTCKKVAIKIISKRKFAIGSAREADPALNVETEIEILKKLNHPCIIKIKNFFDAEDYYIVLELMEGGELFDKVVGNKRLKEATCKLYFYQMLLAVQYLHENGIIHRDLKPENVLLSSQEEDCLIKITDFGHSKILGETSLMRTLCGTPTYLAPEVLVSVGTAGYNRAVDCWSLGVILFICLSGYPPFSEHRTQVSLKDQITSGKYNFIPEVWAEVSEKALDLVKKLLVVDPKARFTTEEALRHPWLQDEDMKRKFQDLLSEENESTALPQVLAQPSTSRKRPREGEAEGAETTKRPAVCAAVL
Chain of FES (P07332 whole entry): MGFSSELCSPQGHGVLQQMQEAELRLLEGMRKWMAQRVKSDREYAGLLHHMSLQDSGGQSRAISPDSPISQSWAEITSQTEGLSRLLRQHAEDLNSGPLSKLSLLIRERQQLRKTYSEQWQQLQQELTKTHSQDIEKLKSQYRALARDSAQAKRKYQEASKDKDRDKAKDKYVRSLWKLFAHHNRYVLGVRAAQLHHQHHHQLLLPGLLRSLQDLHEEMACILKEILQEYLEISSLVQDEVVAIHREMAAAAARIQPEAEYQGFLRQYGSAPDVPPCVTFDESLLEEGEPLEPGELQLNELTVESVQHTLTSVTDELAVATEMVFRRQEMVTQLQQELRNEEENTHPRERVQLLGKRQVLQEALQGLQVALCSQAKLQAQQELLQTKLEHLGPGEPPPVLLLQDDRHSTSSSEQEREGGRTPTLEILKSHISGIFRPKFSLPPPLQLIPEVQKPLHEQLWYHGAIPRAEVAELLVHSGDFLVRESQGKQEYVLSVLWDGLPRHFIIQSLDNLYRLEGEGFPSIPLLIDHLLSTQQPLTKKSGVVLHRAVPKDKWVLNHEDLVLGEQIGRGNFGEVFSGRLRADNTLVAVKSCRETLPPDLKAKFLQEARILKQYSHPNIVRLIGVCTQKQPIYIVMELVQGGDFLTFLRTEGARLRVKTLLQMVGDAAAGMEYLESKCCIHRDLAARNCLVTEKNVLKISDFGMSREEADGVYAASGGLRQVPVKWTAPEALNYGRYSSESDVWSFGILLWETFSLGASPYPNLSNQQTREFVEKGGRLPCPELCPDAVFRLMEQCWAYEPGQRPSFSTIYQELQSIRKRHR
Chain of CK2a1 (P68400 whole entry): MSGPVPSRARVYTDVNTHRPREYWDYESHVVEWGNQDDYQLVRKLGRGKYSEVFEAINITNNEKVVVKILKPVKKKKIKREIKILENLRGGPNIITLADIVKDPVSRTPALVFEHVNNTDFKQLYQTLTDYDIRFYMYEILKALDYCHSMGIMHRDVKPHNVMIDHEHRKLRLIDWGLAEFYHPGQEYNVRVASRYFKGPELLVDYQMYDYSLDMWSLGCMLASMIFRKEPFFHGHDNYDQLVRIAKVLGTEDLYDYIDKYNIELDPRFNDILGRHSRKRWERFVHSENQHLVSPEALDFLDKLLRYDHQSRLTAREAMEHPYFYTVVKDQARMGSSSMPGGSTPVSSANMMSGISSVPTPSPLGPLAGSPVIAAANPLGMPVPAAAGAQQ

SMILES: CNc1ncc2cc(-c3cc(C(F)(F)F)ccc3Cl)c(=O)n(CCCCN)c2n1 [compound 9, 8-(4-Aminobutyl)-6-(2-chloro-5-(trifluoromethyl)phenyl)-2-(methylamino)pyrido[2,3-d]pyrimidin-7(8H)-one]
ΔTm at 10 µM (EphA7; read-out: dTm 9): 0.6 °C
ΔTm at 10 µM (FES; read-out: dTm 9): 1.4 °C
ΔTm at 10 µM (TAF1; read-out: dTm 9): -0.7 °C
ΔTm at 10 µM (EphB3; read-out: dTm 9): 2.3 °C
ΔTm at 10 µM (CHK2; read-out: dTm 9): 0.5 °C
ΔTm at 10 µM (CK2a1; read-out: dTm 9): 0.1 °C
ΔTm at 10 µM (MAP3K5; read-out: dTm 9): 0.4 °C
ΔTm at 10 µM (NDR2; read-out: dTm 9): 0.1 °C

SMILES: CNc1ncc2cc(-c3cc(Cl)ccc3Cl)c(=O)n(CCCCN)c2n1 [compound 8, 8-(4-Aminobutyl)-6-(2,5-dichlorophenyl)-2-(methylamino)pyrido[2,3-d]pyrimidin-7(8H)-one]
ΔTm at 10 µM (EphA7; read-out: dTm 8): 0.5 °C
ΔTm at 10 µM (FES; read-out: dTm 8): 2.5 °C
ΔTm at 10 µM (TAF1; read-out: dTm 8): -0.7 °C
ΔTm at 10 µM (EphB3; read-out: dTm 8): 4.1 °C
ΔTm at 10 µM (CHK2; read-out: dTm 8): 0.4 °C
ΔTm at 10 µM (CK2a1; read-out: dTm 8): 1.1 °C
ΔTm at 10 µM (MAP3K5; read-out: dTm 8): 1.5 °C
ΔTm at 10 µM (NDR2; read-out: dTm 8): 0.4 °C

SMILES: CNc1ncc2cc(-c3cc(Cl)ccc3Br)c(=O)n(CCCCN)c2n1 [compound 10, 8-(4-Aminobutyl)-6-(2-bromo-5-chlorophenyl)-2-(methylamino)pyrido[2,3-d]pyrimidin-7(8H)-one]
ΔTm at 10 µM (EphA7; read-out: dTm 10): 0.5 °C
ΔTm at 10 µM (FES; read-out: dTm 10): 2.5 °C
ΔTm at 10 µM (TAF1; read-out: dTm 10): -0.8 °C
ΔTm at 10 µM (EphB3; read-out: dTm 10): 4.6 °C
ΔTm at 10 µM (CHK2; read-out: dTm 10): 0.2 °C
ΔTm at 10 µM (CK2a1; read-out: dTm 10): 1.3 °C
ΔTm at 10 µM (MAP3K5; read-out: dTm 10): 1.7 °C
ΔTm at 10 µM (NDR2; read-out: dTm 10): 0.4 °C

The remaining lines, values ahead:

ΔTm at 10 µM (EphA7; read-out: dTm 11): 0.6 °C
ΔTm at 10 µM (FES; read-out: dTm 11): 2.8 °C
ΔTm at 10 µM (TAF1; read-out: dTm 11): -0.8 °C
ΔTm at 10 µM (EphB3; read-out: dTm 11): 3 °C
ΔTm at 10 µM (CHK2; read-out: dTm 11): 0.4 °C
ΔTm at 10 µM (CK2a1; read-out: dTm 11): 1.1 °C
ΔTm at 10 µM (MAP3K5; read-out: dTm 11): 1.6 °C
ΔTm at 10 µM (NDR2; read-out: dTm 11): 0.5 °C
SMILES: CNc1ncc2cc(-c3cc(Br)ccc3Br)c(=O)n(CCCCN)c2n1 [compound 11, 8-(4-Aminobutyl)-6-(2,5-dibromophenyl)-2-(methylamino)pyrido[2,3-d]pyrimidin-7(8H)-one]

ΔTm at 10 µM (EphA7; read-out: dTm 12): 2.3 °C
ΔTm at 10 µM (FES; read-out: dTm 12): 5.4 °C
ΔTm at 10 µM (TAF1; read-out: dTm 12): 0.4 °C
ΔTm at 10 µM (EphB3; read-out: dTm 12): 2.5 °C
ΔTm at 10 µM (CHK2; read-out: dTm 12): 3.3 °C
ΔTm at 10 µM (CK2a1; read-out: dTm 12): -0.2 °C
ΔTm at 10 µM (MAP3K5; read-out: dTm 12): 9.1 °C
ΔTm at 10 µM (NDR2; read-out: dTm 12): 5.2 °C
SMILES: CNc1ncc2cc(-c3cc(F)c(-c4cccc(C)n4)cc3F)c(=O)n(CCCCN)c2n1 [compound 12, 8-(4-Aminobutyl)-6-(2,5-difluoro-4-(6-methylpyridin-2-yl)phenyl)-2-(methylamino)pyrido[2,3-d]pyrimidin-7(8H)-one]
